Laboratory results as given in paper PMC9203742 (Nature Communications, 2022).
Where “and” joins values, the source holds several entries; their conditions need not be identical. Identical values can stand only once.

Key:
[1] = tested on: Purkinje cells in cerebellar slices from mGlu1^+/+ mice; assay: chemLTD recording (PF-EPSC) in Purkinje cells of acute cerebellar slices, mGlu1^+/+ mice; type: cell-based, mouse; conditions: for PF-EPSC amplitude relative to time 0: mGlu1+/+, individual cells
Procedure: (§1) Sagittal cerebellar slices were cut with a microslicer (Linear slicer Pro7; DOSAKA EM) in cutting solution buffer and then incubated in ACSF gassed with 5% CO2 and 95% O2 at room temperature.
(§2) Whole-cell patch-clamp recordings were made from visually identified Purkinje cells using a 60× water-immersion objective attached to an upright microscope (BX51WI, Olympus) at room temperature, as described previously. […] Picrotoxin (100 µM; Sigma) was always added to the saline to block inhibitory synaptic transmission.
(§3) To evoke EPSCs derived from CF (CF-EPSCs) and PF (PF-EPSCs) inputs onto Purkinje cells, square pulses were applied through a stimulating electrode placed on the granular layer and the molecular layer (50 µm away from the pial surface), respectively. The selective stimulation of CFs and PFs was confirmed by the paired-pulse depression (PPD) and paired-pulse facilitation (PPF) of EPSC amplitudes at a 50-ms interstimulus interval (ISI), respectively.
(§4) For the LTD sessions, PF-EPSCs were recorded successively at a frequency of 0.1 Hz from Purkinje cells clamped at –80 mV. After a stable PF-EPSC amplitude had been observed for at least 5 min, a conjunctive stimulation that consisted of 30 single PF stimuli together with a 200 ms depolarizing pulse from a holding potential of –60 to +20 mV was applied for LTD induction.
(§5) To chemically induce LTD (chemLTD), 50 µM (S)-3,5-dihydroxyphenylglycine (DHPG) or 1 µM Pd(sulfo-bpy) was applied for 10 min in a current-clamp mode. We often observed a transient decrease in PF-EPSC amplitude after the application of each drug probably because Purkinje cells under current-clamp conditions excite spontaneously to suppress presynaptic function through the retrograde signaling. Access resistances were monitored every 10 s by measuring the peak currents in response to 2 mV, 50-ms hyperpolarizing steps throughout the experiments; the measurements were discarded if the resistance changed by >20% of its original value. The normalized EPSC amplitude on the ordinate represents the EPSC amplitude for the average of six traces for 1 min divided by that of the average of six traces for 1 min immediately before the conjunctive stimulation or the drug application.

[2] = tested on: Purkinje cells in cerebellar slices from mGlu1^CBC/+ mice; assay: chemLTD recording (PF-EPSC) in Purkinje cells of acute cerebellar slices, mGlu1^CBC/+ mice; type: cell-based, mouse; conditions: for PF-EPSC amplitude relative to time 0: mGlu1CBC/+, individual cells
Procedure: as §1, §2, §3, §4, §5

[3] = tested on: MLIs infected with AAV-hSyn-mGlu1^CBC; assay: sAP-mediated currents (firing rate) of MLIs infected with AAV-hSyn-mGlu1^CBC; type: cell-based, mouse; conditions: 10 μM Pd(sulfo-bpy); P = 4.613 × 10^–5
Procedure: (§6) To monitor the excitability of MLIs, sAP-mediated current responses were extracellulary recorded by a loose cell-attached voltage-clamp at a holding potential of 0 mV. Glass electrodes used for cell-attached recordings had resistances of 3–5 MΩ when filled with ACSF. The current recordings from AAV-infected cells were performed 1−2 weeks after infection. The EPSCs and sAP-mediated currents were recorded using an Axopatch 200B amplifier (Molecular Devices), and the pClamp system (version 9.2; Molecular Devices) was used for data acquisition and analysis. The signals were filtered at 1 kHz and digitized at 4 kHz for the evoked EPSCs and 10 kHz for the sAP-mediated currents.
(§7) Injection of viral solutions was performed as described previously with slight modifications. Briefly, under deep anesthesia, with an intraperitoneal injection of medetomidine (0.3 mg/kg), midazolam (4.0 mg/kg), and butorphanol (5.0 mg/kg), 4 µL of the solutions containing AAV mixture were directly injected into the vermis of cerebellar lobules V-VIII (200-300 µm in depth, 12 µL/h in rate) of WT mice (C57BL/6J, P20-P30) using glass pipette (30–40 µm in diameter) and microinjector (Nanoliter; World Precision Instruments). In all, 1−2 week after injection, the mice were used for each experiment.

[4] = tested on: MLIs surrounded by mGlu1(N264H)-expressing Purkinje cells (AAV-L7-mGlu1^CBC); assay: sAP-mediated currents (firing rate) of MLIs in slices infected with AAV-L7-mGlu1^CBC; type: cell-based, mouse; conditions: 10 μM Pd(sulfo-bpy); P = 0.293
Procedure: as §6, §7

[5] = Solubility of Pd complexes in ACSF by UV-vis spectroscopy; conditions: 1 h at 4 °C
[6] = 1 μM Pd(sulfo-bpy) for 10 min, t = 31−35 min

Cc1ccnc(-c2cc(COCCCS(=O)(=O)[O-])ccn2)c1.[Cl][Pd][Cl].[Na+] [Pd(sulfo-bpy)]
chemLTD: normalized PF-EPSC amplitude [1, 6]: 99 ± 4% | PF-EPSC amplitude relative to time 0 ([1]; time 11 min): 1.305 and 0.7371 and 0.3878 and 0.9487 and 0.6362 and 1.191 and 0.6572 and 0.79 | PF-EPSC amplitude relative to time 0 ([1]; time 12 min): 1.203 and 0.9018 and 0.4484 and 1.074 and 0.6455 and 1.19 and 0.9598 and 0.8251 | PF-EPSC amplitude relative to time 0 ([1]; time 13 min): 1.075 and 1.089 and 0.5282 and 1.162 and 0.6836 and 1.016 and 0.9614 and 0.7972 | PF-EPSC amplitude relative to time 0 ([1]; time 14 min): 1.127 and 1.131 and 0.639 and 1.08 and 0.8118 and 0.8848 and 0.8669 and 0.886 | PF-EPSC amplitude relative to time 0 ([1]; time 15 min): 0.8966 and 0.8928 and 0.5282 and 1.038 and 0.8059 and 0.9429 and 0.8907 and 0.8537 | PF-EPSC amplitude relative to time 0 ([1]; time 16 min): 1.016 and 0.9829 and 0.5855 and 1.115 and 0.7312 and 0.9396 and 0.9005 and 0.8573 | PF-EPSC amplitude relative to time 0 ([1]; time 17 min): 1.118 and 0.828 and 0.627 and 1.083 and 0.6712 and 0.9977 and 1.081 and 0.8535 | PF-EPSC amplitude relative to time 0 ([1]; time 18 min): 1.106 and 0.9208 and 0.5918 and 1.166 and 0.7081 and 1.026 and 1.038 and 0.9503 | PF-EPSC amplitude relative to time 0 ([1]; time 19 min): 1.038 and 0.7989 and 0.7251 and 1.08 and 0.721 and 0.8774 and 0.9331 and 0.9414 | PF-EPSC amplitude relative to time 0 ([1]; time 20 min): 1.053 and 0.8133 and 0.2871 and 1.2251 and 0.7983 and 1.16 and 1.101 and 0.9444 | PF-EPSC amplitude relative to time 0 ([1]; time 21 min): 1.169 and 0.7496 and 1.002 and 1.096 and 0.7681 and 0.9902 and 1.174 and 0.9728 | PF-EPSC amplitude relative to time 0 ([1]; time 22 min): 1.26 and 0.9695 and 1.072 and 1.131 and 0.7557 and 1.075 and 1.029 and 0.936 | PF-EPSC amplitude relative to time 0 ([1]; time 23 min): 1.263 and 0.7868 and 0.9511 and 1.11 | chemLTD: normalized PF-EPSC amplitude [2, 6]: 68 ± 5% | PF-EPSC amplitude relative to time 0 ([2]; time 11 min): 0.4686 and 0.63 and 0.9877 and 0.796 and 0.8663 and 0.8992 and 0.747 and 0.5935 | PF-EPSC amplitude relative to time 0 ([2]; time 12 min): 0.5628 and 0.6446 and 0.9391 and 0.713 and 0.7198 and 0.9003 and 0.6921 and 0.7152 | PF-EPSC amplitude relative to time 0 ([2]; time 13 min): 0.621 and 0.6377 and 0.8863 and 0.7092 and 0.7439 and 0.8712 and 0.699 and 0.7447 | PF-EPSC amplitude relative to time 0 ([2]; time 14 min): 0.6095 and 0.6409 and 0.8383 and 0.7009 and 0.7151 and 0.836 and 0.6833 and 0.8191 | PF-EPSC amplitude relative to time 0 ([2]; time 15 min): 0.6012 and 0.6741 and 0.9189 and 0.6721 and 0.6888 and 0.8836 and 0.7293 and 0.8645 | PF-EPSC amplitude relative to time 0 ([2]; time 16 min): 0.5331 and 0.6806 and 0.916 and 0.7015 and 0.697 and 0.7978 and 0.7054 and 0.8737 | PF-EPSC amplitude relative to time 0 ([2]; time 17 min): 0.5491 and 0.6542 and 0.8424 and 0.6962 and 0.6712 and 0.7371 and 0.6859 and 0.9232 | PF-EPSC amplitude relative to time 0 ([2]; time 18 min): 0.5728 and 0.6898 and 0.851 and 0.7066 and 0.6167 and 0.9345 and 0.6617 and 0.9653 | PF-EPSC amplitude relative to time 0 ([2]; time 19 min): 0.6147 and 0.6344 and 0.8403 and 0.7161 and 0.6281 and 0.877 and 0.663 and 0.9646 | PF-EPSC amplitude relative to time 0 ([2]; time 20 min): 0.6536 and 0.6214 and 0.844 and 0.7068 and 0.6666 and 0.8676 and 0.6507 and 0.862 | PF-EPSC amplitude relative to time 0 ([2]; time 21 min): 0.6234 and 0.6163 and 0.8161 and 0.7457 and 0.6988 and 0.7776 and 0.5996 and 0.8293 | PF-EPSC amplitude relative to time 0 ([2]; time 22 min): 0.6625 and 0.6523 and 0.8492 and 0.7192 and 0.6537 and 0.814 and 0.6019 and 0.7969 | PF-EPSC amplitude relative to time 0 ([2]; time 23 min): 0.703 and 0.6662 and 0.865 and 0.711 | Firing rate of MLIs [3]: increased the firing rate | Firing rate of MLIs [4]: failed to increase | Solubility: concentration over which linearity of absorbance at 312 nm is observed [5]: over 1 mM
